From US12699083B2, “Device for continuous measurement of cardiac activity” (The Hospital for Sick Children, priority 2018, dated 2026)

Legend:
hiPSC-CM monolayers = experiment: Drug test on hiPSC-CM monolayers cultured on CNT-PDMS device arrays (contractile stress, beating rate, beating rhythm from CNT sensor resistance); assay type: cell-based, human
Protocol: Once after hiPSC-CMs were seeded, the device array 10 was placed in a humidified 37° C. incubator with 5% CO2, and the electrical signal of the CNT sensors started to be recorded. A constant voltage of 2.5 V was applied to the CNT-PDMS sensors, and sensor signals were recorded with a sampling frequency of 10 Hz.
Drug stocks were kept at 4° C. prior to use. Drug tests were performed on hiPSC-CM monolayers during culture days between 10 and 14. […] After each drug addition, cells were incubated for 10 hours for each dose before CNT sensor signals were recorded to reflect the drug effect.
Each set of data was from 3 to 6 experiment repeats and presented as values of the mean and the standard error of the mean. For differential analysis, all statistics of recorded data was processed using Student's t-test with levels of 0.05, 0.1 when they were compared to the control group. All data sets passed Shapiro-Wilk normality tests and equal variance tests.
The contractile stress generated by cardiomyocytes monolayer during synchronous systole was calculated from the experimentally measured data (i.e., CNT sensor's electrical resistance change).

single hiPSC-CM = settings: 0.1 μM of OM, TFFB; cited from earlier work

`Cc1cccc(CCN2CCC(C(=O)c3ccc(NS(C)(=O)=O)cc3)CC2)n1` [E-4031] gave a contractile stress (hiPSC-CM monolayers; 0.10 μM E-4031, n=3) of 2.47±0.48 kPa and a contractile stress (hiPSC-CM monolayers; 0.60 μM E-4031, n=3, p>0.1) of 2.39±1.38 kPa.
In the case of `CC(C)NCC(O)c1ccc(O)c(O)c1` (centres unmarked) [Isoproterenol], the “beating rate increased by” value (hiPSC-CM monolayers; 2.00 μM isoproterenol) is reported as 13.6%, the “Contractile stress increased by” value (hiPSC-CM monolayers; 2.00 μM isoproterenol vs control) is reported as 69.4% and the beating rate (hiPSC-CM monolayers; 2.00 μM isoproterenol, n=3, p<0.05, control 1.17±0.068 Hz) is reported as 1.33±0.081 Hz. For the same molecule, the contractile stress (hiPSC-CM monolayers; 2.00 μM isoproterenol, n=3, control 2.34±0.093 kPa) was 3.963±0.532 kPa.
`COc1cc2c(cc1OC)CC(=O)N(CCCN(C)C[C@H]1Cc3cc(OC)c(OC)cc31)CC2` [Ivabradine] gave a beating rate (hiPSC-CM monolayers; 10.00 μM Ivabradine, n=3, p<0.05, before 1.16±0.32 Hz) of 0.81±0.30 Hz and a contractile stress (hiPSC-CM monolayers; 10.00 μM Ivabradine, n=3, p>0.1, before 2.26±0.43 kPa) of 2.00±0.68 kPa.
In the case of `COC(=O)N1CCN(Cc2cccc(NC(=O)Nc3ccc(C)nc3)c2F)CC1` [OM, Omecamtiv mecarbil], the “contractile stress increase by” value (hiPSC-CM monolayers; 20 nM (0.02 μM) OM) is reported as 76%, the contractile stress (hiPSC-CM monolayers; 20 nM (0.02 μM) OM, n=3, p<0.05, before 2.25±0.11 kPa) is reported as 3.96±0.40 kPa and the “amplitude of ΔR/R0” value (hiPSC-CM monolayers; 20 nM OM, n=3, p<0.05, before 1.69×10^−2±8.46×10^−4) is reported as 2.98×10^−2±2.97×10^−3. The beating rate (hiPSC-CM monolayers; 20 nM OM, n=3, p>0.1, control 1.11±0.25 Hz) was 1.13±0.31 Hz and the “Contractility generated by a single cardiomyocyte increased by” value (single hiPSC-CM) was 16.7%.
In the case of `COc1ccc(CCN(C)CCCC(C#N)(c2ccc(OC)c(OC)c2)C(C)C)cc1OC` (centres unmarked) [Verapamil], the contractile stress (hiPSC-CM monolayers; 0.20 μM Verapamil, n=3, before 2.34±9.31×10^−2 kPa) is reported as 1.15±1.31×10^−1 kPa.
